Assay results: paper PMC8317958, “Design, synthesis and biological evaluation of novel thiazole-naphthalene derivatives as potential anticancer agents and tubulin polymerisation inhibitors” (Journal of Enzyme Inhibition and Medicinal Chemistry, 2021)
One block for each compound: values may come before it.

Legend:
[1] = test system: human lung adenocarcinoma cell line (A549); assay: Antiproliferative activity, CCK-8 assay, A549; type: cell-based; settings: CCK-8, means of three experiments
[2] = test system: human breast cancer cell line (MCF-7); assay: Antiproliferative activity, CCK-8 assay, MCF-7; type: cell-based; settings: CCK-8, 48 h, means of three experiments
Method: Cell culture and cytotoxicity assay […]
against MCF-7 human breast cancer cell line by using the CCK -8 assay with cisplatin, […]
cultured in RPMI-1640 medium containing 10% fetal bovine serum in a humidified 5% CO2 atmosphere at 37 °C. Cells were seeded into 96-well plates at a density of 1×10^5 cells/well and incubated for 24 h. After incubation, the cells were treated with vehicle control, reference drugs, or title compounds, and incubated at 37 °C for 48 h.
Then CCK-8 was added and incubated for another 4 h. The absorbance values of the solution at 450 nm were measured using microplate reader, and each experiment was performed at least in triplicate. Then the results were expressed as the IC50 values. […]

purified tubulin protein = assay: In vitro tubulin polymerisation assay; type: biochemical; settings: 37 °C, 20 min incubation
Method: 1.3. In vitro tubulin polymerization assay
The purified tubulin protein was mixed with different concentrations of compound 5b […]
PEM buffer (100 mM PIPES, 1 mM MgCl2, and 1 mM EGTA) with 1 mM GTP and 5% glycerol. Then the mixture was immediately monitored under 340 nm at 37 °C every 1 min for 20 min using the spectrophotometer. The plateau absorbance values were used for calculations. The IC50 value was defined as the concentration of the compound

MCF-7 cancer cells [3] = assay: Cell cycle analysis by flow cytometry; type: cell-based, human; settings: 24 h; for G2 (G2/M) population: control 26.66%; for S population: control 33.42%; for G1 population: control 39.92%
Method: Based on the literature report, most tubulin destabilising agents can disrupt regulated cell cycle distribution and lead to cell cycle arrest at metaphase[23]^,[31]. Therefore, we evaluated the effect of the most promising compound 5b on the cell cycle of MCF-7 cancer cells using the flow cytometry analysis assay. In this study, MCF-7 cancer cells were incubated with different concentrations of 5b (0.3125, 0.625, and 1.25 μM) for 24 h. […]
MCF-7 cells were seeded in 6-well plates (3 × 10^5 cells/well) and incubated in the absence and presence of different concentrations of compound 5b (0.3125, 0.625, and 1.25 μM) for 24 h. Subsequently, the cells were harvested, washed with PBS, and fixed in 70% ice-cold ethanol at 4 °C overnight. After removed the ethanol in the next day, the cells were resuspended in the staining buffer and incubated with RNase and propidium iodide for 30 min. […]

MCF-7 cancer cells [4] = assay: Annexin V-FITC/PI apoptosis assay; type: cell-based, human; settings: 24 h; for total numbers of early and late apoptotic cells: control 4.93%
Method: Considering that tubulin polymerisation inhibitors can induce cellular apoptosis, the Annexin V-FITC/PI assay was performed to detect whether compound 5b was able to induce cancer cell apoptosis. […]
MCF-7 cells were seeded in 6-well plates (3 × 10^5 cells/well) and incubated with different concentrations of compound 5b (0.3125, 0.625, and 1.25 μM) or vehicle for 24 h. Cells were harvested and incubated with 5 μL of Annexin-V/FITC in 300 μL binding buffer for 15 min. Then, PI solution (10 μL) was added to the medium and […]
incubated for 5 min. […]

[5] = test system: normal human embryonic kidney cell line (HEK293); assay: Inhibitory activity against normal cell line HEK293; type: cell-based
tubulin = test system: tubulin; parameters: method as in PMID 31724435; settings: naphthalene-chalcone derivative of earlier work ref 23; read-out: Tubulin polymerisation IC50; cited from earlier work

Compound: COc1ccc(-c2sc(N)nc2-c2ccc(OC)c3ccccc23)cc1 [5a]
- IC50 ([1]; Homo sapiens, A549): 2.72 ± 0.18 µM
- IC50 ([2]; Homo sapiens, MCF7): 1.8 ± 0.07 µM

Compound: CCOc1ccc(-c2sc(N)nc2-c2ccc(OC)c3ccccc23)cc1 [5b]
- IC50 (purified tubulin protein): 3.3 µM
- IC50 ([1]; Homo sapiens, A549): 0.97 ± 0.13 µM
- G2 (G2/M) population (MCF-7 cancer cells [3]; 5b 0.3125 μM): 29.03%
- S population (MCF-7 cancer cells [3]; 5b 0.3125 μM): 28.11%
- G1 population (MCF-7 cancer cells [3]; 5b 0.3125 μM): 42.86%
- G2 (G2/M) population (MCF-7 cancer cells [3]; 5b 0.625 μM): 47.32%
- S population (MCF-7 cancer cells [3]; 5b 0.625 μM): 36.61%
- G1 population (MCF-7 cancer cells [3]; 5b 0.625 μM): 16.06%
- G2 (G2/M) population (MCF-7 cancer cells [3]; 5b 1.25 μM): 72.49%
- S population (MCF-7 cancer cells [3]; 5b 1.25 μM): 20.22%
- G1 population (MCF-7 cancer cells [3]; 5b 1.25 μM): 7.29%
- Q1 quadrant (MCF-7 cancer cells [4]; 5b 0.3125 μM): 0.25
- Q2 quadrant (MCF-7 cancer cells [4]; 5b 0.3125 μM): 10.2
- Q3 quadrant (MCF-7 cancer cells [4]; 5b 0.3125 μM): 5.58
- Q4 quadrant (MCF-7 cancer cells [4]; 5b 0.3125 μM): 83.9
- total numbers of early and late apoptotic cells (MCF-7 cancer cells [4]; 5b 0.3125 μM): 15.78%
- Q1 quadrant (MCF-7 cancer cells [4]; 5b 0.625 μM): 0.44
- Q2 quadrant (MCF-7 cancer cells [4]; 5b 0.625 μM): 14.8
- Q3 quadrant (MCF-7 cancer cells [4]; 5b 0.625 μM): 10.8
- Q4 quadrant (MCF-7 cancer cells [4]; 5b 0.625 μM): 74.0
- total numbers of early and late apoptotic cells (MCF-7 cancer cells [4]; 5b 0.625 μM): 25.6%
- Q1 quadrant (MCF-7 cancer cells [4]; 5b 1.25 μM): 0.55
- Q2 quadrant (MCF-7 cancer cells [4]; 5b 1.25 μM): 15.1
- Q3 quadrant (MCF-7 cancer cells [4]; 5b 1.25 μM): 12.6
- Q4 quadrant (MCF-7 cancer cells [4]; 5b 1.25 μM): 71.8
- total numbers of early and late apoptotic cells (MCF-7 cancer cells [4]; 5b 1.25 μM): 27.7%
- IC50 [5]: 16.4 ± 4.61 µM
- IC50 ([2]; Homo sapiens, MCF7): 0.48 ± 0.03 µM

Compound: COc1cc(-c2sc(N)nc2-c2ccc(OC)c3ccccc23)c(Br)c(OC)c1OC [5c]
- IC50 ([1]; Homo sapiens, A549): > 50 µM
- IC50 ([2]; Homo sapiens, MCF7): 31.1 ± 0.7 µM

Compound: CCC(=O)Nc1nc(-c2ccc(OC)c3ccccc23)c(-c2cc(OC)c(OC)c(OC)c2Br)s1 [6j]
- IC50 ([1]; Homo sapiens, A549): > 50 µM
- IC50 ([2]; Homo sapiens, MCF7): > 50 µM

Compound: COc1cc(-c2sc(NC(=O)C(C)C)nc2-c2ccc(OC)c3ccccc23)c(Br)c(OC)c1OC [6k]
- IC50 ([1]; Homo sapiens, A549): > 50 µM
- IC50 ([2]; Homo sapiens, MCF7): > 50 µM

Compound: COc1ccc(/C=C\c2cc(OC)c(OC)c(OC)c2)cc1O [CA-4, combretastatin A-4, reference compound]
- IC50 ([1]; Homo sapiens, A549): 0.029 ± 0.004 µM

Compound: N.N.[Cl][Pt][Cl] [Cisplatin, reference compound]
- IC50 [1]: 4.92 ± 0.56 µM
- IC50 [2]: 11.2 ± 0.75 µM

Compound: COc1cc2nc(/C=N/c3cccnc3Nc3ccc(Cl)cc3)sc2c(OC)c1OC [IV]
- IC50 (tubulin): 8.4 µM

Further lines, results first:

- IC50 ([1]; Homo sapiens, A549): 16.1 ± 0.83 µM
- IC50 ([2]; Homo sapiens, MCF7): 2.16 ± 0.27 µM
Compound: COc1ccc(-c2sc(NC(C)=O)nc2-c2ccc(OC)c3ccccc23)cc1 [6a]

- IC50 ([1]; Homo sapiens, A549): 40.32 ± 0.32 µM
- IC50 ([2]; Homo sapiens, MCF7): 14.8 ± 0.45 µM
Compound: CCC(=O)Nc1nc(-c2ccc(OC)c3ccccc23)c(-c2ccc(OC)cc2)s1 [6b]

- IC50 ([1]; Homo sapiens, A549): > 50 µM
- IC50 ([2]; Homo sapiens, MCF7): 14.9 ± 0.34 µM
Compound: CCCC(=O)Nc1nc(-c2ccc(OC)c3ccccc23)c(-c2ccc(OC)cc2)s1 [6c]

- IC50 (purified tubulin protein): 6.6 µM
- IC50 ([1]; Homo sapiens, A549): 1.91 ± 0.08 µM
- IC50 ([2]; Homo sapiens, MCF7): 1.03 ± 0.09 µM
Compound: COc1ccc(-c2sc(NC(=O)C(Cl)(Cl)Cl)nc2-c2ccc(OC)c3ccccc23)cc1 [6d]

- IC50 ([1]; Homo sapiens, A549): > 50 µM
- IC50 ([2]; Homo sapiens, MCF7): 12.3 ± 0.54 µM
Compound: COc1ccc(-c2sc(NC(=O)C(C)C)nc2-c2ccc(OC)c3ccccc23)cc1 [6e]

- IC50 ([1]; Homo sapiens, A549): 7 ± 0.3 µM
- IC50 ([2]; Homo sapiens, MCF7): 5.49 ± 0.84 µM
Compound: CCOc1ccc(-c2sc(NC(C)=O)nc2-c2ccc(OC)c3ccccc23)cc1 [6f]

- IC50 ([1]; Homo sapiens, A549): 18.7 ± 0.89 µM
- IC50 ([2]; Homo sapiens, MCF7): 9.61 ± 0.54 µM
Compound: CCOc1ccc(-c2sc(NC(=O)CC)nc2-c2ccc(OC)c3ccccc23)cc1 [6g]

- IC50 ([1]; Homo sapiens, A549): > 50 µM
- IC50 ([2]; Homo sapiens, MCF7): 7.18 ± 0.78 µM
Compound: CCCC(=O)Nc1nc(-c2ccc(OC)c3ccccc23)c(-c2ccc(OCC)cc2)s1 [6h]

- IC50 ([1]; Homo sapiens, A549): > 50 µM
- IC50 ([2]; Homo sapiens, MCF7): 7.69 ± 0.34 µM
Compound: CCOc1ccc(-c2sc(NC(=O)C(C)C)nc2-c2ccc(OC)c3ccccc23)cc1 [6i]

- IC50 ([1]; Homo sapiens, A549): > 50 µM
- IC50 ([2]; Homo sapiens, MCF7): > 50 µM
Compound: CCCC(=O)N(C(=O)CCC)c1nc(-c2ccc(OC)c3ccccc23)c(-c2cc(OC)c(OC)c(OC)c2Br)s1 [6m]

- IC50 ([1]; Homo sapiens, A549): 16.3 ± 0.89 µM
- IC50 ([2]; Homo sapiens, MCF7): 13.5 ± 0.82 µM
Compound: CCC(=O)N(C(C)=O)c1nc(-c2ccc(OC)c3ccccc23)c(-c2cc(OC)c(OC)c(OC)c2Br)s1 [6n, N-acetyl-N-(5-(2-bromo-3,4,5-trimethoxyphenyl)-4-(4-methoxynaphthalen-1-yl)thiazol-2-yl)propionamide]
